Assay: Affinity capillary electrophoresis (ACE), pH 7.4
Details: 30 mM phosphate buffer pH 7.4, 25 °C, 15 kV
Description: To assess the CD complex formation capability of the five cathinone derivatives, we devised a screening ACE method tailored to closely mimic physiological conditions. In a preliminary study, the ACE conditions were optimized regarding the type, pH, and concentration of the background electrolyte, the applied voltage, and the injection parameters. […] In order to avoid high Joule heat generation, sufficiently low voltage should be used; thus, after registering the Ohm plot (I-U plot), it was set to 15 kV. Throughout our ACE measurements, corrections for viscosity and ionic strength were systematically implemented to ensure precise determination of complex stability constants.
The CE experiments were performed on a HP ^3DCE and on an Agilent 7100 instrument (Agilent Technologies, Waldbronn, Germany) equipped with a photodiode array detector and the Chemstation software for data handling. Untreated fused silica capillaries (50 µm id, 48.5 cm total, 40 cm effective length) were purchased from Agilent. Conditioning of new capillary was conducted by flushing with 1 M NaOH followed by 0.1 M NaOH and water for 30 min each. Prior to all runs, the capillary was preconditioned by rinsing with BGE (2 min). The temperature of the capillary was set to 25 °C. UV detection was performed at 215 nm, and 15–25 kV voltage was applied. Samples were injected hydrodynamically (150 mbar·sec, optimized in the 50–500 mbar·sec range). The CE-pH measurements were carried out applying 25 kV voltage and 200 mbar·sec injection.
The background electrolyte of the CE-pH measurements contained 25 mM Na2HPO4 and 25 mM Na2B4O7, and the appropriate pH was adjusted with hydrochloric acid. During the ACE measurements, 30 mM phosphate buffer pH 7.4 (30 mM Na2HPO4—NaOH) was used. The running buffer was 20 mM acetic acid adjusting with 1 M Tris the pH to 4.5 during the chiral screening experiments. The BGEs contained CDs at various concentrations (0.25–20 mM) in the ACE experiments and 1-5-10 mM in the chiral method optimization experiments.
Stock solutions of each cathinone analog (mephedrone, flephedrone, 4-MEC, butylone, and MDPV) were prepared separately in methanol (1 mg/ml), and appropriate dilutions with water were used to prepare sample solutions for the CE-pH titration and for the ACE studies applying DMSO as EOF marker, while their mixture was used during the chiral separation studies.
The simplest way to determine the mobility is from the migration times (tmax) read from the electropherograms from which the apparent mobility could be calculated, but more accurate mobility values could be obtained by the determination with the Haarhoff–van der Linde (HVL) function based on Equation (2). (2) HVLδ(t;a0,a1,a2,a3δ)=a0/a2a3δ2πexp[−1/2(t−a1/a2)^2]/1/exp(a3δ)−1+1/2[1+erf(t−a1/2a2)] where a0 is the area of the HVL function, a1 is the position of the Gaussian component, a2 is the standard deviation of the Gaussian component, and a3δ is the peak shape distortion. The application of the HVL function is necessary in the case of accurate ACE measurements because, in several cases, the peaks are distorted due to the complex formation, which makes reading the migration times and calculating the mobility more difficult and imprecise.
The most popular technique for quantifying the analyte–ligand interaction with CE is mobility shift ACE.

Substance	4-MEC–CD complex stability constant, Kstab2 (second migrating enantiomer) [M⁻¹]	4-MEC–CD complex stability constant, Kstab/Kstab1 (unresolved or first migrating enantiomer) [M⁻¹]	Flephedrone–CD complex stability constant, Kstab2 (second migrating enantiomer) [M⁻¹]	Flephedrone–CD complex stability constant, Kstab/Kstab1 (unresolved or first migrating enantiomer) [M⁻¹]	Mephedrone–CD complex stability constant, Kstab2 (second migrating enantiomer) [M⁻¹]	Mephedrone–CD complex stability constant, Kstab/Kstab1 (unresolved or first migrating enantiomer) [M⁻¹]	Butylone–CD complex stability constant, Kstab2 (second migrating enantiomer)	Butylone–CD complex stability constant, Kstab/Kstab1 (unresolved or first migrating enantiomer)	MDPV–CD complex stability constant, Kstab2 (second migrating enantiomer)	MDPV–CD complex stability constant, Kstab/Kstab1 (unresolved or first migrating enantiomer)
carboxymethylated-β-CD [CM-β-CD]	725 ± 45	620 ± 40	225 ± 10	190 ± 10	615 ± 25	610 ± 30	–	–	–	–
carboxymethylated-γ-CD [CM-γ-CD]	70 ± 10	65 ± 8	30 ± 5	50 ± 9	60 ± 10	50 ± 8	170 ± 10 M⁻¹	140 ± 10 M⁻¹	170 ± 17 M⁻¹	160 ± 15 M⁻¹
dimethylated-β-CD [DIME-β-CD]	270 ± 25	210 ± 20	–	60 ± 6	–	150 ± 15	–	–	–	–
hydroxypropylated-β-CD [HP-β-CD]	–	80 ± 5	–	15 ± 3	–	60 ± 4	–	170 ± 10 M⁻¹	–	255 ± 10 M⁻¹
hydroxypropylated-γ-CD [HP-γ-CD]	–	40 ± 4	–	220 ± 35	–	25 ± 3	–	40 ± 5 M⁻¹	–	50 ± 10 M⁻¹
phosphated-β-CD [Phos-β-CD]	–	–	440 ± 35	330 ± 20	–	–	–	–	–	870 ± 60 M⁻¹
randomly methylated-β-CD [RAME-β-CD]	–	140 ± 7	–	40 ± 5	–	100 ± 5	350 ± 15 M⁻¹	325 ± 15 M⁻¹	–	585 ± 35 M⁻¹
succinyl-β-CD [Succ-β-CD (DS~4)]	–	–	–	–	–	–	30,500 ± 5300 M^−1	13,500 ± 1350 M^−1	10,600 ± 35 M^−1	12,100 ± 2150 M^−1
sulfated-β-CD [S-β-CD]	–	–	–	860 ± 100	–	–	–	–	–	–
sulfated-γ-CD [S-γ-CD]	–	290 ± 30	–	–	–	160 ± 15	–	960 ± 95 M⁻¹	–	250 ± 55 M⁻¹
sulfo(2-hydroxy)propylated-β-CD [SHP-β-CD]	300 ± 25	250 ± 20	–	60 ± 10	300 ± 20	230 ± 20	–	620 ± 35 M⁻¹	910 ± 55 M⁻¹	800 ± 65 M⁻¹
sulfo(2-hydroxy)propylated-γ-CD [SHP-γ-CD]	25 ± 5	30 ± 7	–	45 ± 80	< 10	15 ± 5	70 ± 7 M⁻¹	30 ± 5 M⁻¹	–	–
sulfobutyl-ether-α-CD [SBE-α-CD]	610 ± 55	450 ± 45	–	–	565 ± 80	430 ± 70	530 ± 100 M⁻¹	220 ± 20 M⁻¹	550 ± 90 M⁻¹	580 ± 80 M⁻¹
sulfobutyl-ether-β-CD [SBE-β-CD (DS~4)]	550 ± 40	560 ± 60	–	175 ± 25	325 ± 60	300 ± 60	–	–	–	–
sulfobutyl-ether-β-CD [SBE-β-CD (DS~6.5)]	660 ± 35	560 ± 35	200 ± 12	200 ± 20	500 ± 40	500 ± 20	–	–	–	–
sulfobutyl-ether-γ-CD [SBE-γ-CD]	–	< 10	–	100 ± 5	65 ± 12	70 ± 15	100 ± 15 M⁻¹	95 ± 15 M⁻¹	–	160 ± 20 M⁻¹
sulfopropylated-β-CD [SP-β-CD (DS~2)]	–	440 ± 25	–	140 ± 12	–	390 ± 20	–	710 ± 45 M⁻¹	–	–

From publication PMC10893103, “Cyclodextrin-Enabled Enantioselective Complexation Study of Cathinone Analogs” (Molecules, 2024)
